Literature values, collected in patent US20240285640A1, “COMBINATION THERAPY FOR TREATING PIK3CA-MUTATED CANCER” (ADLAI NORTYE BIOPHARMA CO., LTD., priority 2020, published 2024).

Experiments:
advanced solid tumors = details: phase I FIH, a variety of advanced solid tumors
colorectal cancer = details: combined with radiotherapy and chemotherapy; Wyrwicz et al., ESMO2019
[1] = tested on: immunosuppressive cells in the tumor microenvironment; details: preclinical studies; by inhibiting the PGE2/EP-4 signaling pathway
[2] = tested on: breast cancer caused by PI3K/PIK3CA mutations; details: patients; Campone M et al. 2018

Row | SMILES | clinical effect as single drug (advanced solid tumors) | clinical efficacy (colorectal cancer) | reduction of immunosuppressive cells in the tumor microenvironment [1] | clinical efficacy [2]
1 | C[C@H](NC(=O)c1c(C(F)F)nn(C)c1Oc1cccc(C(F)(F)F)c1)c1ccc(C(=O)O)cc1 [AN0025] | certain single-drug effect | strong clinical efficacy | effectively reduce | 
2 | Nc1cc(C(F)(F)F)c(-c2cc(N3CCOCC3)nc(N3CCOCC3)n2)cn1 [AN2025, Buparlisib] |  |  |  | effective
